Measured values reported in publication PMC10390520, “Antibody binding of amyloid beta peptide epimers/isomers and ramifications for immunotherapies and drug development” (Scientific Reports, 2023).

Tested on: antibodies 4G8, 6E10, mOC98 and mOC23
Experiment: Immunoprecipitation of Aβ 1–42 peptides with four antibodies, LC-MS/MS detection
Format: binding
Conditions: Fig. 3B data, corrected with individual MS/MS calibration curves; 11 pmol Aβ peptide, 13.2 pmol antibody in 300 µL IP lysis/wash buffer; Protein A/G plus agarose; LC-MS/MS 903–886 m/z; triplicate
Experimental: Antibody binding efficacy was assessed through an immunoprecipitation procedure, followed by reconstitution in borate buffer and analysis via liquid chromatography tandem mass spectrometry (see Methods). […] Note that these antibodies were developed using the WT (all L) Aβ peptide. Further, the MS/MS detection also was optimized using the WT (all L) Aβ peptide. […] The reduced signal intentensities could be attributed to the altered binding between the antibody and the “aberrant” forms of Aβ, differences in the MS/MS of the “aberrant” Aβ or combinations of these two factors. […]
Purified anti-β-Amyloids 17–24 Antibody (4G8) and 1–16 Antibody (6E10) were purchased from BioLegend (San Diego, CA, USA) while mOC-type antibodies recombinant anti-beta amyloid 1–42 mOC98 and mOC23 were purchased from Abcam (Cambridge, UK). Antibody-antigen binding was measured using Pierce Classic IP Kit by Thermo Fisher Scientific (Waltham, MA, USA). […] Elution buffer was evaporated and samples were reconstituted in 20 µL of 0.1 M borate buffered to pH 9.1 and analyzed by LC–MS/MS. […]
HPLC–MS grade acetonitrile was purchased from Sigma-Aldrich and ultrapure water was obtained from a Milli-Q-water system (Millipore, Bedford, MA, USA). […] WT (all L) Aβ 1–42 and aberrant Aβ 1–42 immunoprecipitated standards were quantitated using the MS/MS transition 903–886 m/z. […]

antibody binding affinity (immunoprecipitation extraction) compared to WT (all L) Aβ: same efficacy
Substance: WT (all L) Aβ: unmodified wild-type all-L amyloid beta 1–42 peptide, purchased from Genscript
